US10765114B2, “4-amino-6-(pyridyl and 2-substitutedphenyl)-picolinates and 6-amino-2-(pyridyl and 2-substitutedphenyl)-pyrimidine-4-carboxylates and their use as herbicides” (Dow AgroSciences LLC, priority 2013, dated 2020)

What follows are compounds tested on Key Grass and Sedge Weeds as well as Grass Crops (assay: Post-Emergent Test II (Table 6)). Details: post-emergence, 336 h, CYPSS, 70 g ai/ha, 14 days after application, read-out: Visual Growth Reduction (%) 14 Days After Application CYPSS.
Assay type: in vivo
Outline: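 Visual injury ratings (0 = no injury, 100 = complete kill) were taken 14 days after treatment relative to untreated plants. Seedlings at the first or second true leaf stage received an overhead spray at 187 L/ha, and solvent-blank sprayed plants served as controls.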

**Q.** `COC(=O)c1nc(-c2ccc(Cl)nc2Cl)cc(N)c1Cl` [Compound 15, methyl 4-amino-2′,5,6′-trichloro-[2,3′-bipyridine]-6-carboxylate] was tested. Which pest or weed control at 70 g/ha did it give?
**A.** 0 to 29%

Same assay, conditions: post-emergence, 336 h, CYPSS, 140 g ai/ha, 14 days after application, read-out: Visual Growth Reduction (%) 14 Days After Application CYPSS

**Q.** How did the pest or weed control at 140 g/ha turn out when `COC(=O)c1nc(-c2ccc(Cl)nc2Cl)cc(N)c1Cl` [Compound 15, methyl 4-amino-2′,5,6′-trichloro-[2,3′-bipyridine]-6-carboxylate] was run?
**A.** 0 to 29%

Same assay, conditions: post-emergence, 336 h, DIGSA: crabgrass (Digitaria sanguinalis), 70 g ai/ha, 14 days after application, read-out: Visual Growth Reduction (%) 14 Days After Application DIGSA

**Q.** How did the pest or weed control at 70 g/ha turn out when `COC(=O)c1nc(-c2ccc(Cl)nc2Cl)cc(N)c1Cl` [Compound 15, methyl 4-amino-2′,5,6′-trichloro-[2,3′-bipyridine]-6-carboxylate] was run?
**A.** 0 to 29%

Same assay, conditions: post-emergence, 336 h, DIGSA: crabgrass (Digitaria sanguinalis), 140 g ai/ha, 14 days after application, read-out: Visual Growth Reduction (%) 14 Days After Application DIGSA

**Q.** For `COC(=O)c1nc(-c2ccc(Cl)nc2Cl)cc(N)c1Cl` [Compound 15, methyl 4-amino-2′,5,6′-trichloro-[2,3′-bipyridine]-6-carboxylate], which pest or weed control at 140 g/ha is on record?
**A.** 0 to 29%

Same assay, conditions: post-emergence, 336 h, ECHSS, 70 g ai/ha, 14 days after application, read-out: Visual Growth Reduction (%) 14 Days After Application ECHSS

**Q.** For `COC(=O)c1nc(-c2ccc(Cl)nc2Cl)cc(N)c1Cl` [Compound 15, methyl 4-amino-2′,5,6′-trichloro-[2,3′-bipyridine]-6-carboxylate], which pest or weed control at 70 g/ha is on record?
**A.** 0 to 29%

Same assay, conditions: post-emergence, 336 h, ECHSS, 140 g ai/ha, 14 days after application, read-out: Visual Growth Reduction (%) 14 Days After Application ECHSS

**Q.** `COC(=O)c1nc(-c2ccc(Cl)nc2Cl)cc(N)c1Cl` [Compound 15, methyl 4-amino-2′,5,6′-trichloro-[2,3′-bipyridine]-6-carboxylate] was tested. Which pest or weed control at 140 g/ha did it give?
**A.** 0 to 29%

Same assay, conditions: post-emergence, 336 h, ORYSS (crop), 70 g ai/ha, 14 days after application, read-out: Visual Growth Reduction (%) 14 Days After Application ORYSS

**Q.** `COC(=O)c1nc(-c2ccc(Cl)nc2Cl)cc(N)c1Cl` [Compound 15, methyl 4-amino-2′,5,6′-trichloro-[2,3′-bipyridine]-6-carboxylate] was tested. Which pest or weed control at 70 g/ha did it give?
**A.** 0 to 29%

Same assay, conditions: post-emergence, 336 h, ORYSS (crop), 140 g ai/ha, 14 days after application, read-out: Visual Growth Reduction (%) 14 Days After Application ORYSS

**Q.** For `COC(=O)c1nc(-c2ccc(Cl)nc2Cl)cc(N)c1Cl` [Compound 15, methyl 4-amino-2′,5,6′-trichloro-[2,3′-bipyridine]-6-carboxylate], which pest or weed control at 140 g/ha is on record?
**A.** 0 to 29%

Same assay, conditions: post-emergence, 336 h, SETFA: giant foxtail (Setaria faberi), 70 g ai/ha, 14 days after application, read-out: Visual Growth Reduction (%) 14 Days After Application SETFA

**Q.** `COC(=O)c1nc(-c2ccc(Cl)nc2Cl)cc(N)c1Cl` [Compound 15, methyl 4-amino-2′,5,6′-trichloro-[2,3′-bipyridine]-6-carboxylate] was tested. Which pest or weed control at 70 g/ha did it give?
**A.** 0 to 29%

Same assay, conditions: post-emergence, 336 h, SETFA: giant foxtail (Setaria faberi), 140 g ai/ha, 14 days after application, read-out: Visual Growth Reduction (%) 14 Days After Application SETFA

**Q.** With `COC(=O)c1nc(-c2ccc(Cl)nc2Cl)cc(N)c1Cl` [Compound 15, methyl 4-amino-2′,5,6′-trichloro-[2,3′-bipyridine]-6-carboxylate] as the compound, how does the pest or weed control at 140 g/ha read?
**A.** 0 to 29%

Same assay, conditions: post-emergence, 336 h, SORVU: grain sorghum (Sorghum vulgare), 70 g ai/ha, 14 days after application, read-out: Visual Growth Reduction (%) 14 Days After Application SORVU

**Q.** Which pest or weed control at 70 g/ha does the source give for `COC(=O)c1nc(-c2ccc(Cl)nc2Cl)cc(N)c1Cl` [Compound 15, methyl 4-amino-2′,5,6′-trichloro-[2,3′-bipyridine]-6-carboxylate] here?
**A.** 0 to 29%

Same assay, conditions: post-emergence, 336 h, SORVU: grain sorghum (Sorghum vulgare), 140 g ai/ha, 14 days after application, read-out: Visual Growth Reduction (%) 14 Days After Application SORVU

**Q.** For `COC(=O)c1nc(-c2ccc(Cl)nc2Cl)cc(N)c1Cl` [Compound 15, methyl 4-amino-2′,5,6′-trichloro-[2,3′-bipyridine]-6-carboxylate], which pest or weed control at 140 g/ha is on record?
**A.** 0 to 29%

Same assay, conditions: post-emergence, 336 h, TRZSS (crop), 70 g ai/ha, 14 days after application, read-out: Visual Growth Reduction (%) 14 Days After Application TRZSS

**Q.** Which pest or weed control at 70 g/ha does the source give for `COC(=O)c1nc(-c2ccc(Cl)nc2Cl)cc(N)c1Cl` [Compound 15, methyl 4-amino-2′,5,6′-trichloro-[2,3′-bipyridine]-6-carboxylate] here?
**A.** 0 to 29%

Same assay, conditions: post-emergence, 336 h, TRZSS (crop), 140 g ai/ha, 14 days after application, read-out: Visual Growth Reduction (%) 14 Days After Application TRZSS

**Q.** For `COC(=O)c1nc(-c2ccc(Cl)nc2Cl)cc(N)c1Cl` [Compound 15, methyl 4-amino-2′,5,6′-trichloro-[2,3′-bipyridine]-6-carboxylate], which pest or weed control at 140 g/ha is on record?
**A.** 0 to 29%

Same assay, conditions: post-emergence, 336 h, ZEAMX: maize, corn (Zea mays), 70 g ai/ha, 14 days after application, read-out: Visual Growth Reduction (%) 14 Days After Application ZEAMX

**Q.** `COC(=O)c1nc(-c2ccc(Cl)nc2Cl)cc(N)c1Cl` [Compound 15, methyl 4-amino-2′,5,6′-trichloro-[2,3′-bipyridine]-6-carboxylate] was tested. Which pest or weed control at 70 g/ha did it give?
**A.** 0 to 29%
